# In US20170035706A1, “DETRUSOR HYPERACTIVITY WITH IMPAIRED CONTRACTILITY AMELIORATING AGENT” (TAIHO PHARMACEUTICAL CO., LTD., priority 2015, published 2017):
# Values joined by “and” are separate entries in the source; they are usually repeats but may differ in a detail not shown here. Equal entries are not always repeated.
# Tested on: rat dysuria model that presents DHIC
# Assay: Cystometry and nomogram analysis in rat dysuria model that presents DHIC (partial ligation of urethra)
# Format: in vivo
# Method: The models were produced by partial ligation ((1)1.57 mm) of urethra in rats (9 weeks, female, Sprague-Dawley). Six weeks after preparation of the model, the rats were released the ligation. The next day, the intravesical pressure and the voided volume were measured under awake condition. And the detrusor contractility during voiding phase was evaluated by nomogram analysis using Qmax and Pdet. Additionally, the detrusor overactivity, as index of overactive bladder, and the increase of residual urine volume, as index of underactive bladder, were evaluated.
# The dysuria models in this example were prepared in the same manner as in Test Example 1. The test drugs (vehicle: 6% Gelucire, Compound 1 of the present invention 10 mg/kg) were orally administered to each group after two weeks from the preparation of the models twice a day for four weeks. On the day of the final administration, the rats were released the ligation of urethra. The next day, the intravesical pressure and the voided volume were measured using cystometry under conscious condition. The detrusor overactivity, as an index of overactive bladder, and the increase of residual urine volume, as an index of underactive bladder, were evaluated. Additionally, the detrusor contractility during voiding phase was evaluated by nomogram analysis using Qmax and Pdet.
# In the same manner as Test Example 1, the rats were released the ligation of urethra at six weeks after the preparation of the model. The next day, the intravesical pressure and the voided volume were measured using cystometry under conscious condition. The detrusor overactivity, as an index of overactive bladder, and the increase of residual urine volume, as an index of underactive bladder, were evaluated. Additionally, the detrusor contractility during voiding phase was evaluated by nomogram analysis using Qmax and Pdet. Tamsulosin (3 μg/kg) was administered intravenously to the dysuria rat at the evaluation (six weeks after preparation of the model).
Structure (SMILES),"Detrusor contractility during voiding phase: distance from the origin in nomogram analysis (Qmax, Pdet) (10 mg/kg orally twice a day for four weeks, control 4.24±0.53, sham 24.75±3.14)","Residual urine volume (female Sprague-Dawley rats, 10 mg/kg orally twice a day for four weeks, conscious cystometry, control 0.57 ± 0.06, sham 0.10 ± 0.03, 10 mg/kg) [mL]","Detrusor overactivity (female Sprague-Dawley rats, 10 mg/kg orally twice a day for four weeks, conscious cystometry, control 1.73 ± 0.10, sham 0.19 ± 0.09, 10 mg/kg)","Detrusor contractility in nomogram analysis (3 μg/kg intravenously at the evaluation, vs control (FIG. 2))","Detrusor overactivity (female Sprague-Dawley rats, 3 μg/kg intravenously at the evaluation, conscious cystometry, control 1.73 ± 0.10) [times/min]"
"CC1=C(CCCCCCCCCCCCCCCO)C(C)(C)CCC1=O [Compound 1 of the present invention, 3-(15-hydroxypentadecyl)-2,4,4-trimethyl-2-cyclohexene-1-one]",10.5±2.3,0.28 ± 0.13,0.63±0.14 times/min and 0.63 ± 0.10 times/min,,
"CCOc1ccccc1OCCN[C@H](C)Cc1ccc(OC)c(S(N)(=O)=O)c1 [Tamsulosin, reference compound]",,,,no effect,0.68±0.33
